The text below walks through data of patent US9468209B2, “Method for eradicating weeds with derivatives of 3-acetyl-5-sec-butyl-4-hydroxy-3-pyrrolin-2-one” (priority 2012, dated 2016).

SMILES strings stand for the structures.

Holding throughout (assay): Leaf piece damage test
What all share (assay type): in vivo
Holding throughout (design): key: 4: The leaf completely dead; 3: Two third of the leaf withered; 2: One half of the leaf withered; 1: Only edge of the leaf withered; 0: Not damage at all
Holding throughout (details): 50 μg/mL, 4 days

One test concerns Commelina communis. The gist of the method: (§1)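 Test compounds were dissolved in a little methanol and diluted in distilled water to 50 μg/mL, with methanol-water and pure water as controls. Five 5 mm pieces cut from the second leaf were treated three times per treatment. Damage was scored after 4 days and converted to a damage index.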
In another test the test system is Duchesnea indica. The gist of the method:
as §1

Another test relates to Conyza canademsis. The gist of the method: as §1
The test system of a further test is Big Bristlegass. The gist of the method: as §1
A further test deals with Leptochloa chinensis. The gist of the method: as §1
A further test relates to Polygonum perfoliatum. The gist of the method: as §1
Test [1] relates to Crabgrass (Digitaria sanguinalis). The gist of the method:
as §1

In a further test the test system is Wild oats. The gist of the method:
as §1

In a further test the test system is Equal alopecurus. The gist of the method:
as §1

Test [2] concerns Pigweed (Amaranthus spinosus). The gist of the method: as §1
A further test has as its system Polygonum hydropiper. The gist of the method:
as §1

The subject of the next test is Trifolium pretense. The gist of the method:
as §1

The next test has as its system Common polypogon. The gist of the method: as §1
For a further test, the system named is Rumex japonicus. The gist of the method: as §1
The subject of a further test is Plantago asiatica. The gist of the method: as §1
For test [3], the system named is Japanese false bindweed (Calystegia hederacea). The gist of the method:
as §1

The subject of another test is Galeopsis bifida. The gist of the method: as §1
The next test relates to Eupatorium adenophorum. The gist of the method: as §1
In the next test the test system is Keng stiffgrass. The gist of the method: as §1
Another test concerns Mosla scabra. The gist of the method: as §1
The subject of the next test is Carpesium abrotanoides. The gist of the method:
as §1

The test system of the next test is Polygonum lapathifolium. The gist of the method:
as §1

Regarding `CCCC(C#N)C1NC(=O)C(=C(C)O)C1=O` (stereo not shown) [Compound 53], the Damage level is on record as 3 in the test on Commelina communis; 3 in the test with Duchesnea indica; 3 in the test with Conyza canademsis; 3 in the test on Big Bristlegass; 4 with Leptochloa chinensis; 3 in the test on Polygonum perfoliatum. Further, the Damage level came to 4 in test [1]; 3 in the test with Wild oats; 4 in the test on Equal alopecurus; 3 in test [2]; 3 in the test with Polygonum hydropiper; 4 in the test on Trifolium pretense. Also, the Damage level in the test with Common polypogon was 4; with Rumex japonicus it was 3; with Plantago asiatica, 2; in test [3], 4; in the test with Galeopsis bifida it was 3; in the test on Eupatorium adenophorum it was 4. Further, the Damage level with Keng stiffgrass is 4; with Mosla scabra, 2; in the test with Carpesium abrotanoides it was 2; in the test with Polygonum lapathifolium, 3.
